Patent US20050214367A1, “Processes for making coated phytochemicals and tocopherols and products formed therefrom” (priority 2004, published 2005)

Legend:
[1] = Screen (mesh) particle size analysis; assay type: physicochemical; conditions: uncoated feed powder
[2] = uncoated feed powder
[3] = uncoated feed powder; remark: listed apart in the source

Cc1c(C)c2c(c(C)c1OC(=O)CCC(=O)O)CC[C@@](C)(CCC[C@H](C)CCC[C@H](C)CCCC(C)C)O2 [succinate (vitamin E), tocopherol succinate]
mean particle size [1]: about 200 mesh | loose bulk density [2]: 0.38 g/cc | moisture content [3]: 0.06 % by weight
